Assay results as given in patent publication US8440724B2, “Inhibiting neurotransmitter reuptake” (Mayo Foundation for Medical Education and Research, priority 2008, dated 2013).
Where two headings read alike, the source gives them in different places.

How the values were obtained:
[1] = molecular target: human dopamine transporter (Homo sapiens, UniProt Q01959); assay: Inhibition of [3H]DA transport into HEK-293 cells expressing the human transporter
[2] = molecular target: human serotonin transporter (Homo sapiens, UniProt P31645); assay: Inhibition of [3H]5-HT transport into HEK-293 cells expressing the human transporter
Chain of human serotonin transporter (P31645 whole entry): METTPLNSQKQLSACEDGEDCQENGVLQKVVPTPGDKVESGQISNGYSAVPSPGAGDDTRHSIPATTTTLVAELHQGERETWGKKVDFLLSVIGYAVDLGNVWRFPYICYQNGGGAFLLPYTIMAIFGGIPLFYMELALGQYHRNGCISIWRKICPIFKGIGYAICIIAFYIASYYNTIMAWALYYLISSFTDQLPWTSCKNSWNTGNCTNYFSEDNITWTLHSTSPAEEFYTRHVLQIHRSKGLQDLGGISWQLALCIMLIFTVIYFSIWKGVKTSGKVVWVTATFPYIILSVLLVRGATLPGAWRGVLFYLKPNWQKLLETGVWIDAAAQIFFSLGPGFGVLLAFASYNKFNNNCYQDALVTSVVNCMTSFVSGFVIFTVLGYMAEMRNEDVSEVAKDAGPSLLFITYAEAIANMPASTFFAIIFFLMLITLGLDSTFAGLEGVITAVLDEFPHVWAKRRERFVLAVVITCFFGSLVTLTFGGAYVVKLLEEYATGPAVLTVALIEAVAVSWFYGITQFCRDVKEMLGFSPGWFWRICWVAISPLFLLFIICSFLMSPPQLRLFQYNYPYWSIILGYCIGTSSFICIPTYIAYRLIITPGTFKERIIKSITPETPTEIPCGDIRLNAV

[3] = system: human serotonin, norepinephrine and dopamine transporters; assay: Transport into cells expressing human transporters: rank order of potency, comparison with rat; format: cell-based; details: for Potency (rank order, transport into cells expressing human transporters): from Ki values, S = 5-HT, N = NE, D = DA; for Species selectivity: blocking transport by human vs rat serotonin and dopamine transporters: human transporters in cells vs rat synaptosomal preparations (Tables 3 and 4)
[4] = system: rat 5-HT, NE and DA transport, synaptosomal preparations; assay: Rat brain synaptosomal transport: rank order of potency; format: biochemical; details: from Ki values; S = 5HT, N = NE, D = DA
[5] = molecular target: T1, human norepinephrine transporter (hNET) (Homo sapiens, UniProt P23975); assay: Radioligand binding to cloned hNET, [3H]nisoxetine, HEK-293 cell membranes
T1 construct: expressed in transfected cells; host or cells: HEK-293, stably transfected
T1 sequence (P23975 whole entry): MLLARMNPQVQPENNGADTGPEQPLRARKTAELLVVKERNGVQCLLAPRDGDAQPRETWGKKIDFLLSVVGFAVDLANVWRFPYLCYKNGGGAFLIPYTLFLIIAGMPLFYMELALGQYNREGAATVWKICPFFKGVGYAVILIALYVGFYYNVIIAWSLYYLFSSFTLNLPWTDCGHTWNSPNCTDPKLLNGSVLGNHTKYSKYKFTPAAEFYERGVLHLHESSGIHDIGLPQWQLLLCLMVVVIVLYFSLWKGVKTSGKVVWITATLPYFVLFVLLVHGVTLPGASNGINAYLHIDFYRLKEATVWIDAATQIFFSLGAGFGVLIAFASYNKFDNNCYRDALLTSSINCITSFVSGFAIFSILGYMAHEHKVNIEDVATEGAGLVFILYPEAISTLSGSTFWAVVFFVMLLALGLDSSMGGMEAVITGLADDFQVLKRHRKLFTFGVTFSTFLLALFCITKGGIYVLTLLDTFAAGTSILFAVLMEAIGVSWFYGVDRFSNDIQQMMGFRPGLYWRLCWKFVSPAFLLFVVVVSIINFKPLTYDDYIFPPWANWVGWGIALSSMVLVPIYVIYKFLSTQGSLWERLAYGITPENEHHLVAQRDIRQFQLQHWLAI

[6] = molecular target: T2, rat norepinephrine transport, synaptosomal preparations (Rattus norvegicus, UniProt Q63380); assay: Inhibition of [3H]NE reuptake in rat brain synaptosomes (occipital cortex); format: biochemical
T2 construct: from tissue; host or cells: rat occipital cortex synaptosomes (male Sprague-Dawley)
T2 sequence (Q63380 1-617): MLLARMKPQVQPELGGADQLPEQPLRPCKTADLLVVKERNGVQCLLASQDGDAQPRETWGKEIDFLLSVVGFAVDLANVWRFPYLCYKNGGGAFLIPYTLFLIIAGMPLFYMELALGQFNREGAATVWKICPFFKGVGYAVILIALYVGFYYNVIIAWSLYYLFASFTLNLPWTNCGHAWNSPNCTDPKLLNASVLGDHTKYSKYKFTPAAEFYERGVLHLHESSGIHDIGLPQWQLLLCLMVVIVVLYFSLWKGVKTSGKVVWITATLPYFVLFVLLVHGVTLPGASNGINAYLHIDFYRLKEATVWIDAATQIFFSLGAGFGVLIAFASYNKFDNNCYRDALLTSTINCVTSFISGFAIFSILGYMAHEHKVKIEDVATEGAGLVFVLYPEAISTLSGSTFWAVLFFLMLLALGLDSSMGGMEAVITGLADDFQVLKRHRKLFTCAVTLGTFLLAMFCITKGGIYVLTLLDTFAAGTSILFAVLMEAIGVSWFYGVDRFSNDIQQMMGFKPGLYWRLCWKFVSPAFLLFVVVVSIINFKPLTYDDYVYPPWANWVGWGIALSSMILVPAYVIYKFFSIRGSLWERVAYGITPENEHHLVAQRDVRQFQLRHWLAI
Protocol: The dissected tissues were separately homogenized in 20 volumes (cortical) or 40 volumes (striatal) of ice-cold, oxygenated HEPES buffer 0.32 M sucrose containing 11 mM glucose (pH 7.4) in a glass Potter-Elvehjem homogenizer with Teflon® pestle (8 strokes, 900 rpm). The homogenates were centrifuged at 1,000×g for 10 minutes. The resulting supernatant was decanted and further centrifuged at 20,000×g for 20 minutes at 4° C. […] The synaptosomal protein concentration was determined by using the BCA assay (Pierce Biotechnology Inc, Rockford, Ill.), according to the manufacturer's instructions. Synaptosomal protein (1.0-2.5 mg) was suspended in 1 mL oxygenated incubation buffer as defined above. Test amine compound was pre-incubated with the synaptosomal preparation for 30 minutes at 37° C. in a shaking water bath (80 oscillations/minute).

[7] = system: male C57BL/6J mice; assay: Tail suspension test (TST) in mice; format: in vivo, mouse; details: for Duration of immobility in TST vs saline: 5 mg/kg IP, FIG. 10E
Protocol: When mice are suspended by their tail, there is an initial period of agitation, followed by immobility. This test identifies antidepressant compounds, which decrease the duration of immobility.
Test compounds were prepared by formulating the compounds with a pharmaceutically acceptable carrier such as saline. […] Each mouse was then subjected to the tail-suspension test (TST). Each mouse (n>3) was suspended by its tail 45 cm above the table top with the use of adhesive tape placed 1 cm from the tip of its tail. Behavior was scored every 5 seconds throughout the 6-minute test as either mobile or immobile (FIG. 10A-D) or total duration of immobility during the 6-minute test (FIGS. 10E and 10H). Mice were considered immobile only when hanging passively and completely motionless. Scores for each behavior were expressed as total counts per 6-minute session.

[8] = molecular target: T3, human dopamine transporter (hDAT) (Homo sapiens, UniProt Q01959); assay: Radioligand binding to cloned hDAT, [3H]WIN35428, HEK-293 cell membranes; details: for Binding at hDAT compared to PRC200-SS: in words
T3 construct: expressed in transfected cells; host or cells: HEK-293, stably transfected
T3 sequence (Q01959 whole entry): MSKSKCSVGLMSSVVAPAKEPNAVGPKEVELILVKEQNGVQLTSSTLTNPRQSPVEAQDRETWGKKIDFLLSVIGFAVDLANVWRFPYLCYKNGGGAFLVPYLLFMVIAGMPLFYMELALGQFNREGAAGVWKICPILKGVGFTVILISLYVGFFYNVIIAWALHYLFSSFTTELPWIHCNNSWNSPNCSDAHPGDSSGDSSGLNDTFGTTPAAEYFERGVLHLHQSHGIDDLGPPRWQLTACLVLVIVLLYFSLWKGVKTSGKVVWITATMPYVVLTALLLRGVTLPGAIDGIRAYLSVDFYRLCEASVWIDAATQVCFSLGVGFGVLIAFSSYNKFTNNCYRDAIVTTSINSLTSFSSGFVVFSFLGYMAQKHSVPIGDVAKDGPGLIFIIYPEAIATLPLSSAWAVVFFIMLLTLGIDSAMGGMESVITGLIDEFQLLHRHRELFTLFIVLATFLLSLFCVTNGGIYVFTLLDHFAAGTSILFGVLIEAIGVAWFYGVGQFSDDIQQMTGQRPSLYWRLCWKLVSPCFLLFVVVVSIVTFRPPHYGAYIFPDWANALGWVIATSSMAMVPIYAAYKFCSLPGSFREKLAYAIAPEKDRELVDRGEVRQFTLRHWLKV

[9] = mice, 5 and 10 mg/kg IP, 30 minutes before testing
[10] = Geometric Mean ± SEM, HCl salts, read-out: Equilibrium Dissociation Constant (KD) for Transporter Binding, hNET (N)
[11] = Geometric Mean ± SEM, rat brain synaptosomes, read-out: Inhibitor Constant (Ki), NE transport
[12] = Geometric Mean ± SEM, HCl salts, read-out: Equilibrium Dissociation Constant (KD) for Transporter Binding, hDAT (D)
[13] = when the compound occupies 95% of hSERT binding sites, calculation based on occupancy theory

Chain of human dopamine transporter (Q01959 whole entry): as above

Structure (SMILES)	Ki [1] [µM]	Ki [2] [µM]	Potency (rank order, transport into cells expressing human transporters) [3]	Potency (rank order, transport into rat brain synaptosomal preparations) [4]	Kd [5] [µM]	Kd [8] [µM]	Kd [5, 10] [µM]	Ki [6, 11] [µM]	Kd [8, 12] [µM]	Binding at hDAT compared to PRC200-SS [8]	further results
CNCC(c1ccc2ccccc2c1)C(F)c1ccccc1 (racemic) [MCJ001-F-(±)-RR, (2R,3R/2S,3S)-3-fluoro-N-methyl-2-(naphthalen-2-yl)-3-phenylpropan-1-amine]	0.033 ± 0.001	0.018 ± 0.003	N > S > D	N > S > D	0.0045 ± 0.0008	0.14 ± 0.01					Ki [6]: 0.047 ± 0.005 µM; Immobility in TST (counts per 6-minute session) vs saline ([7]; mice, 5 and 10 mg/kg IP): significantly (P≦0.016) reduced immobility; Mobility in TST (counts per 6-minute session) vs saline [7, 9]: significantly (P≦0.016) increased mobility
CNC[C@H](c1ccc2ccccc2c1)[C@H](OCCCCCO[C@H](c1ccccc1)[C@H](CNC)c1ccc2ccccc2c1)c1ccccc1 [MCJ001-Dimer5-SS, (2S,2′S,3S,3′S)-3,3′-(pentane-1,5-diylbis(oxy))bis(N-methyl-2-(naphthalen-2-yl)-3-phenylpropan-1-amine)]	0.052	0.014 ± 0.002	S > D > N	S > N > D			0.16 ± 0.03	0.2 ± 0.03	0.113 ± 0.006		Species selectivity: blocking transport by human vs rat serotonin and dopamine transporters [3]: much more potent at blocking transport by the human serotonin and dopamine transporters; Duration of immobility in TST vs saline ([7]; mice): except MCJ002-NH2-SS and MCJ001-Dimer5-SS, significantly reduced the time that the animals were immobile
CNC[C@H](c1ccc2ccccc2c1)[C@@H](F)c1ccccc1 [MCJ001-F-RS, (2S,3R)-3-fluoro-N-methyl-2-(naphthalen-2-yl)-3-phenylpropan-1-amine]	0.03 ± 0.005	0.0035 ± 0.0009	S > N > D	S = N > D	0.0009 ± 0.0001	0.019 ± 0.002				Enhanced binding to hDAT	Ki [6]: 0.009 ± 0.001 µM; Immobility in TST (counts per 6-minute session) vs saline ([7]; mice, 1, 2.5, and 5 mg/kg IP, FIG. 10B): significantly (P<0.005) reduced immobility; Mobility in TST (counts per 6-minute session) vs saline ([7]; mice, 2.5 and 5 mg/kg IP, FIG. 10B): significantly (P<0.005) increased mobility
CNC[C@@H](c1ccc2ccccc2c1)[C@H](F)c1ccccc1 [MCJ001-F-SR, (2R,3S)-3-fluoro-N-methyl-2-(naphthalen-2-yl)-3-phenylpropan-1-amine]		0.15		S > N > D	0.43 ± 0.07	0.036 ± 0.006		0.11 ± 0.02		potently binds to hDAT, in the range of that seen with PRC200-SS	Binding at hNET compared to PRC200-SS ([5]; in words): much more weakly at hNET and hSERT; Immobility in TST (counts per 6-minute session) vs saline ([7]; mice, 10 mg/kg IP, FIG. 10C): significantly (P<0.033) reduced immobility; Mobility in TST (counts per 6-minute session) vs saline ([7]; mice, 10 mg/kg IP, FIG. 10C): significantly (P≦0.033) increased mobility
CNC[C@H](c1ccc2ccccc2c1)[C@@H](N=[N+]=[N-])c1ccccc1 [MCJ001-N3-RS, (2S,3R)-3-azido-N-methyl-2-(naphthalen-2-yl)-3-phenylpropan-1-amine]	0.064	0.048 ± 0.01	N > S > D	N > S > D			0.064 ± 0.007	0.056 ± 0.003	0.19 ± 0.02		
CNC[C@@H](c1ccc2ccccc2c1)[C@H](N=[N+]=[N-])c1ccccc1 [MCJ001-N3-SR, (2R,3S)-3-azido-N-methyl-2-(naphthalen-2-yl)-3-phenylpropan-1-amine]	0.077	0.046 ± 0.006	S > D > N	N > S > D			0.7 ± 0.1	0.25 ± 0.02	1.44 ± 0.07		Species selectivity: blocking transport by human vs rat serotonin and dopamine transporters [3]: much more potent at blocking transport by the human serotonin and dopamine transporters
CNC[C@H](c1ccc2ccccc2c1)[C@H](OC)c1ccccc1 [MCJ001-OMe-SS, (2S,3S)-3-methoxy-N-methyl-2-(naphthalen-2-yl)-3-phenylpropan-1-amine]	0.021 ± 0.003	0.012 ± 0.002	N > S > D	S > N > D		0.0406 ± 0.0008	0.0014 ± 0.0002	0.024 ± 0.002			Immobility in TST (counts per 6-minute session) vs saline ([7]; mice, 15 mg/kg orally (gastric gavage), FIG. 10A): significantly (P<0.02) reduced immobility; Immobility in TST (counts per 6-minute session) vs saline ([7]; mice, 5 and 10 mg/kg IP): significantly (P<0.02) reduced immobility; Mobility in TST (counts per 6-minute session) vs saline [7, 9]: significantly (P<0.02) increased mobility
CN(C)C[C@H](c1ccc2ccccc2c1)[C@H](N)c1ccccc1 [MCJ002-NH2-SS, (2S,3S)-N1,N1-dimethyl-2-(naphthalen-2-yl)-3-phenylpropane-1,3-diamine]						0.0042 ± 0.0002	0.0126 ± 0.0009			several fold more potent binding at hDAT	Occupancy of hNET binding sites [5, 13]: 79%; Duration of immobility in TST vs saline ([7]; mice): except MCJ002-NH2-SS and MCJ001-Dimer5-SS, significantly reduced the time that the animals were immobile; Occupancy of hDAT binding sites [8, 13]: 92%
